Each block holds one compound with its values, some of them ahead of it.
Assays:
K562 [1] = assay: Antiproliferative activity against human K562 cells assessed as reduction in cell viability after 24 hrs by MTT assay; assay type: functional, cell-based; settings: K562, 24 h
PBMC = assay: Cytotoxicity against human PBMC cells assessed as reduction in cell viability after 24 hrs by MTT assay; assay type: cell-based
HL-60 = assay: Antiproliferative activity against human HL60 cells assessed as reduction in cell viability after 24 hrs by MTT assay; assay type: functional, cell-based; settings: HL-60, 24 h
K562-Lucena 1 = assay: Antiproliferative activity against human K562-Lucena 1 cells assessed as reduction in cell viability after 24 hrs by MTT assay; assay type: functional, cell-based; settings: K562-Lucena 1, 24 h
A549 = assay: cells; assay type: functional, cell-based; settings: Homo sapiens
Description: Antiproliferative activity against human A549 cells by MTT assay

NCI-H460 = assay: Antiproliferative activity against human H460 cells by MTT assay; assay type: functional, cell-based
MCF7 [2] = assay: cells; assay type: functional, cell-based; settings: Homo sapiens
Description: Antiproliferative activity against human MCF7 cells by MTT assay

HCT-116 [3] = assay: Antiproliferative activity against human HCT116 cells by MTT assay; assay type: functional, cell-based
HepG2 [4] = assay: Antiproliferative activity against human HepG2 cells by MTT assay; assay type: functional, cell-based
K562 [5] = assay: Antiproliferative activity against human K562 cells by MTT assay; assay type: functional, cell-based
LoVo = assay: Antiproliferative activity against human LoVo cells by MTT assay; assay type: functional, cell-based
MCF7 [6] = assay: Antiproliferative activity against human MCF7 cells assessed as reduction in cell viability after 72 hrs by MTT assay; assay type: functional, cell-based; settings: MCF7, 72 h
MCF7 [7] = assay: Potency index, ratio of Sorafenib IC50 to test compound IC50 for antiproliferative activity against human MCF7 cells; assay type: functional
HT-29 [8] = assay: Potency index, ratio of Sorafenib IC50 to test compound IC50 for antiproliferative activity against human HT-29 cells; assay type: functional
HT-29 [9] = assay: Antiproliferative activity against human HT-29 cells assessed as reduction in cell viability after 72 hrs by MTT assay; assay type: functional, cell-based; settings: HT-29, 72 h
T47D = assay: Antiproliferative activity against human T47D cells assessed as reduction in cell viability after 72 hrs by MTT assay; assay type: functional, cell-based
HeLa [10] = assay: Antiproliferative activity against human HeLa cells assessed as reduction in cell viability after 72 hrs by MTT assay; assay type: functional, cell-based
MDA-MB-231 = assay: Antiproliferative activity against human MDA-MB-231 cells assessed as reduction in cell viability after 72 hrs by MTT assay; assay type: functional, cell-based; settings: MDA-MB-231, 72 h, read-out: IC50
A-431 = assay: Antiproliferative activity against human A431 cells assessed as reduction in cell viability after 72 hrs by MTT assay; assay type: functional, cell-based; settings: A-431, 72 h
A2780 = assay: Antiproliferative activity against human A2780 cells assessed as reduction in cell viability after 72 hrs by MTT assay; assay type: functional, cell-based; settings: A2780, 72 h
[11] = Antiproliferative activity against human […] cells assessed as reduction in cell viability after 72 hrs by MTT assay; assay type: functional, cell-based
PC-3 = assay: Antiproliferative activity against human PC3 cells assessed as reduction in cell viability after 24 hrs by MTT assay; assay type: functional, cell-based; settings: PC-3, 24 h
HepG2 [12] = assay: Antiproliferative activity against human HepG2 cells assessed as reduction in cell viability after 24 hrs by MTT assay; assay type: functional, cell-based; settings: HepG2, 24 h
HCT-116 [13] = assay: Antiproliferative activity against human HCT116 cells assessed as reduction in cell viability after 24 hrs by MTT assay; assay type: functional, cell-based; settings: HCT-116, 24 h
MCF7 [14] = assay: Antiproliferative activity against human MCF7 cells assessed as reduction in cell viability after 24 hrs by MTT assay; assay type: functional, cell-based; settings: MCF7, 24 h
[15] = Cytotoxicity against human HEK cells assessed as reduction in cell viability after 24 hrs by MTT assay; assay type: cell-based; settings: HEK293, 24 h
Erythrocyte = assay: Cytotoxicity against human RBC cells assessed as reduction in cell viability after 24 hrs by MTT assay; assay type: cell-based
[16] = Antiproliferative activity against BAEC cells assessed as reduction in cell viability after 3 days by coulter counting method; assay type: functional, cell-based; settings: Bos taurus, 72 h
L1210 = assay: Antiproliferative activity against mouse L1210 cells assessed as reduction in cell viability after 3 days by coulter counting method; assay type: functional, cell-based; settings: L1210, 72 h
MGC-803 = assay: Antiproliferative activity against human MGC803 cells by MTT assay; assay type: functional, cell-based
MKN-28 = assay: Antiproliferative activity against human MKN28 cells by MTT assay; assay type: functional, cell-based
MKN-45 = assay: Antiproliferative activity against human MKN45 cells by MTT assay; assay type: functional, cell-based
DU-145 = assay: Antiproliferative activity against human DU145 cells assessed as reduction in cell viability after 48 hrs by MTT assay; assay type: functional, cell-based; settings: DU-145, 48 h
SK-OV-3 = assay: Antiproliferative activity against human SKOV3 cells assessed as reduction in cell viability after 48 hrs by MTT assay; assay type: functional, cell-based; settings: SK-OV-3, 48 h
HeLa [17] = assay: Antiproliferative activity against human HeLa cells assessed as reduction in cell viability after 48 hrs by MTT assay; assay type: functional, cell-based

- IC50 (K562 [1]): 14.3 to 99.2 µM
- IC50 (HL-60): 14.3 to 99.2 µM
- IC50 (K562-Lucena 1): 14.3 to 99.2 µM
SMILES: O=C1C=C(n2cc(-c3ccccc3)nn2)C(=O)c2ccccc21
- IC50 (PBMC): 14.3 to 99.2 µM

- IC50 (K562 [1]): 14.3 to 99.2 µM
- IC50 (HL-60): 14.3 to 99.2 µM
- IC50 (K562-Lucena 1): 14.3 to 99.2 µM
SMILES: COc1ccc(-c2cn(C3=CC(=O)c4ccccc4C3=O)nn2)cc1
- IC50 (PBMC): 14.3 to 99.2 µM

- IC50 (A549): 10 µM
- IC50 (NCI-H460): 8 µM
SMILES: COc1ccc2c(c1)OCC(=O)N2Cc1cn(Cc2ccccc2)nn1

- IC50 (MCF7 [2]): 3.57 to 6.21 µM
- IC50 (HCT-116 [3]): 3.57 to 6.21 µM
- IC50 (HepG2 [4]): 3.57 to 6.21 µM
- IC50 (K562 [5]): 3.57 to 6.21 µM
- IC50 (LoVo): 3.57 to 6.21 µM
SMILES: COc1ccc2[nH]cc(Cn3cc(COc4ccc(/C=C/C(=O)NO)cc4OC)nn3)c2c1

- IC50 (MCF7 [6]): 0.2 to 0.84 µM
- IC50 (HT-29 [9]): 0.2 to 0.84 µM
SMILES: CNC(=O)c1cc(Oc2ccc(-n3cc(-c4cccs4)nn3)cc2)ccn1
- Ratio IC50 (MCF7 [7]): 6.2 - 131.2
- Ratio IC50 (HT-29 [8]): 6.2 - 131.2

- IC50 (MCF7 [6]): 0.2 to 0.84 µM
- IC50 (HT-29 [9]): 0.2 to 0.84 µM
SMILES: CNC(=O)c1cc(Oc2ccc(-n3cc(-c4cccc(F)c4)nn3)cc2)ccn1
- Ratio IC50 (MCF7 [7]): 6.2 - 131.2
- Ratio IC50 (HT-29 [8]): 6.2 - 131.2

- IC50 (MCF7 [6]): 2.4 to 8.3 µM
- IC50 (T47D): 2.4 to 8.3 µM
- IC50 (HeLa [10]): 2.4 to 8.3 µM
- IC50 (MDA-MB-231): 2.4 to 8.3 µM
- IC50 (A-431): 2.4 to 8.3 µM
- IC50 (A2780): 2.4 to 8.3 µM
SMILES: CC(C)(C)c1ccc(-c2cn([C@H]3C[C@H]4[C@@H]5CCc6cc(OCc7ccccc7)ccc6[C@H]5CC[C@@]4(C)[C@@H]3O)nn2)cc1
- IC50 [11]: 2.4 to 8.3 µM

- IC50 (PC-3): 20.7 to 68 µM
- IC50 (HepG2 [12]): 20.7 to 68 µM
- IC50 (HCT-116 [13]): 20.7 to 68 µM
- IC50 (MCF7 [14]): 20.7 to 68 µM
SMILES: COc1cc2nc(Cl)nc(Nc3ccc(Cn4cc(-c5ccccc5)nn4)cc3)c2cc1OC
- IC50 [15]: 40.3 µM
- IC50 (Erythrocyte): 45.6 µM
- IC50 (PBMC): 37.4 µM

- IC50 (L1210): 100 µM
SMILES: CS(=O)(=O)c1ccc(-c2cn(-c3cccc(-c4ccccn4)c3)nn2)cc1
- IC50 [16]: 100 µM

- IC50 (MGC-803): 1.2 to 3.5 µM
- IC50 (MKN-28): 1.2 to 3.5 µM
- IC50 (MKN-45): 1.2 to 3.5 µM
SMILES: COc1ccc(-n2cc(CN3c4ccccc4Sc4ccccc43)nn2)c([N+](=O)[O-])c1

- IC50 (L1210): 40 to 82 µM
SMILES: CS(=O)(=O)c1ccc(-c2cn(-c3ccc(Cl)c(-c4ccccn4)c3)nn2)c(Cl)c1
- IC50 [16]: 40 to 82 µM

- IC50 (DU-145): 8.17 µM
- IC50 (SK-OV-3): > 100 µM
- IC50 (HeLa [17]): > 100 µM
SMILES: CCc1ccc(-n2cc(CNC(=O)C(=O)c3c[nH]c4ccccc34)nn2)cc1

— ChEMBL document CHEMBL4342418, “1,2,3-Triazole-containing hybrids as potential anticancer agents: Current developments, action mechanisms and structure-activity relationships” (Eur J Med Chem, 2019)
